Values of other authors, collected in article PMC9456187, “The Ambivalence of Connexin43 Gap Peptides in Cardioprotection of the Isolated Heart against Ischemic Injury” (International Journal of Molecular Sciences, 2022).

System: ischemic preconditioning (IPC) cardioprotection
Settings: cited from earlier work; for Inhibition of the triggering step of IPC (in words): ref [21],[40],[41],[42],[43]; for Effect on cardioprotection by preconditioning (in words): ref [21]
Experimental: IPC is a powerful and robust cardioprotective mechanism. In the current study, we wanted to examine if IPC in combination with Gap peptides would interfere with infarct size limitation. […] Peptides were added prior to and during three cycles of ischemic preconditioning pretreatment before prolonged global ischemia but not at the following reperfusion. When combining Gap26 and ischemic preconditioning, the protection agains ... || Through the years, multiple attempts have been made to use cardioprotection by IPC or pharmacological interventions that mimic IPC to reduce infarct size in the clinic. So far, this has been without success when carried through to large phase 3 clinical studies. Adaption to stress is a beneficial endogenous mechanism closely related to injury mechanisms.

Row | SMILES | Inhibition of the triggering step of IPC (in words) | Effect on cardioprotection by preconditioning (in words)
1 | COc1ccc2[nH]cc(CCNC(C)=O)c2c1 [melatonin] | inhibit the triggering step of IPC | 
2 | CC(=O)Oc1ccccc1C(=O)O [acetylsalicylic acid (aspirin), acetylsalicylic acid] | inhibit the triggering step of IPC | 
3 | CCCN(CCC)S(=O)(=O)c1ccc(C(=O)O)cc1 [probenecid] |  | could inhibit this effect
4 | O=c1[nH]c(=O)c2[nH]c(=O)[nH]c2[nH]1 [uric acid] | inhibit the triggering step of IPC | blocks cardioprotection by preconditioning
